What was measured:
[1] = molecular target: Histone deacetylase 2 (Homo sapiens, UniProt Q92769); assay: Inhibition of HDAC2 (unknown origin) using Boc-Lys(acetyl)-AMC as substrate preincubated for 5 mins followed by substrate addition by fluorescence assay
[2] = molecular target: Histone deacetylase 3 (Homo sapiens, UniProt O15379); assay: Inhibition of HDAC3 (unknown origin) using Boc-Lys(acetyl)-AMC as substrate preincubated for 5 mins followed by substrate addition by fluorescence assay
[3] = tested on: HeLa; assay: Induction of cell cycle arrest in human HeLa cells assessed as accumulation at G2/M phase at 0.5 uM after 24 hrs by propidium iodide staining based flow cytometry (reference value: 0.35 to 0.37%); assay type: functional
[4] = Half life in artificial intestinal fluid; assay type: ADME
[5] = tested on: HeLa; assay: Induction of cell cycle arrest in human HeLa cells assessed as accumulation at G0/G1 phase at 1 uM after 24 hrs by propidium iodide staining based flow cytometry (reference value: 0.5 to 0.52%); assay type: functional
[6] = tested on: HeLa; assay: Antiproliferative activity against human HeLa cells assessed as reduction in cell viability after 48 hrs by MTT assay; assay type: functional, cell-based
[7] = tested on: MCF7; assay: Antiproliferative activity against human MCF7 cells assessed as reduction in cell viability after 72 hrs by MTT assay; assay type: functional, cell-based; details: MCF7, 72 h
[8] = tested on: A549; assay: Antiproliferative activity against human A549 cells assessed as reduction in cell viability after 72 hrs by MTT assay; assay type: functional, cell-based; details: for IC50: A549, 72 h
[9] = tested on: HeLa; assay: Induction of apoptosis in human HeLa cells assessed as necrotic cells at 1.25 uM after 48 hrs by annexin-V-FITC/propidium iodide staining based flow cytometry (reference value: 0.693%); assay type: functional
[10] = tested on: HeLa; assay: Induction of cell cycle arrest in human HeLa cells assessed as accumulation at S phase at 2 uM after 24 hrs by propidium iodide staining based flow cytometry (reference value: 0.12 to 0.13%); assay type: functional
[11] = tested on: HeLa; assay: Induction of cell cycle arrest in human HeLa cells assessed as accumulation at S phase at 0.5 uM after 24 hrs by propidium iodide staining based flow cytometry (reference value: 0.12 to 0.13%); assay type: functional
[12] = tested on: HeLa; assay: Induction of cell cycle arrest in human HeLa cells assessed as accumulation at G0/G1 phase at 0.5 uM after 24 hrs by propidium iodide staining based flow cytometry (reference value: 0.5 to 0.52%); assay type: functional
[13] = tested on: HeLa; assay: Induction of cell cycle arrest in human HeLa cells assessed as accumulation at G2/M phase at 1 uM after 24 hrs by propidium iodide staining based flow cytometry (reference value: 0.35 to 0.37%); assay type: functional
[14] = tested on: HeLa; assay: Induction of apoptosis in human HeLa cells assessed as late apoptotic cells at 5 uM after 48 hrs by annexin-V-FITC/propidium iodide staining based flow cytometry (reference value: 9.3%); assay type: functional
[15] = tested on: HeLa; assay: Antiproliferative activity against human HeLa cells assessed as reduction in cell viability after 24 hrs by MTT assay; assay type: functional, cell-based
[16] = Antiproliferative activity against human HCT116 cells assessed as reduction in cell viability after 24 hrs by MTT assay; assay type: functional, cell-based; details: HCT-116, 24 h
[17] = tested on: HepG2; assay: Antiproliferative activity against human HepG2 cells assessed as reduction in cell viability after 48 hrs by MTT assay; assay type: functional, cell-based; details: HepG2, 48 h
[18] = tested on: HeLa; assay: Induction of apoptosis in human HeLa cells assessed as necrotic cells at 2.5 uM after 48 hrs by annexin-V-FITC/propidium iodide staining based flow cytometry (reference value: 0.693%); assay type: functional
[19] = Antiproliferative activity against human HCT116 cells assessed as reduction in cell viability after 72 hrs by MTT assay; assay type: functional, cell-based; details: HCT-116, 72 h
[20] = tested on: HeLa; assay: Antiproliferative activity against human HeLa cells assessed as reduction in cell viability after 72 hrs by MTT assay; assay type: functional, cell-based
[21] = tested on: HeLa; assay: Induction of apoptosis in human HeLa cells assessed as early apoptotic cells at 5 uM after 48 hrs by annexin-V-FITC/propidium iodide staining based flow cytometry (reference value: 1.4%); assay type: functional
[22] = tested on: HeLa; assay: Induction of apoptosis in human HeLa cells assessed as early apoptotic cells at 2.5 uM after 48 hrs by annexin-V-FITC/propidium iodide staining based flow cytometry (reference value: 1.4%); assay type: functional
[23] = tested on: HeLa; assay: Induction of apoptosis in human HeLa cells assessed as viable cells at 1.25 uM after 48 hrs by annexin-V-FITC/propidium iodide staining based flow cytometry (reference value: 88.6%); assay type: functional; details: Homo sapiens, HeLa, 48 h; read-out: Activity
[24] = Half life in mouse plasma; assay type: ADME, cell-free
[25] = tested on: HeLa; assay: Induction of cell cycle arrest in human HeLa cells assessed as accumulation at S phase at 1 uM after 24 hrs by propidium iodide staining based flow cytometry (reference value: 0.12 to 0.13%); assay type: functional
[26] = tested on: HeLa; assay: Induction of apoptosis in human HeLa cells assessed as late apoptotic cells at 1.25 uM after 48 hrs by annexin-V-FITC/propidium iodide staining based flow cytometry (reference value: 9.3%); assay type: functional
[27] = tested on: HeLa; assay: Induction of cell cycle arrest in human HeLa cells assessed as accumulation at G2/M phase at 2 uM after 24 hrs by propidium iodide staining based flow cytometry (reference value: 0.35 to 0.37%); assay type: functional
[28] = tested on: HeLa; assay: Induction of apoptosis in human HeLa cells assessed as viable cells at 5 uM after 48 hrs by annexin-V-FITC/propidium iodide staining based flow cytometry (reference value: 88.6%); assay type: functional; details: Homo sapiens, HeLa, 48 h; read-out: Activity
[29] = tested on: HepG2; assay: Antiproliferative activity against human HepG2 cells assessed as reduction in cell viability after 24 hrs by MTT assay; assay type: functional, cell-based; details: HepG2, 24 h
[30] = molecular target: Histone deacetylase 1 (Homo sapiens, UniProt Q13547); assay: Inhibition of HDAC1 (unknown origin) using Boc-Lys(acetyl)-AMC as substrate preincubated for 5 mins followed by substrate addition by fluorescence assay
[31] = tested on: HeLa; assay: Induction of apoptosis in human HeLa cells assessed as early apoptotic cells at 1.25 uM after 48 hrs by annexin-V-FITC/propidium iodide staining based flow cytometry (reference value: 1.4%); assay type: functional
[32] = tested on: HeLa; assay: Induction of apoptosis in human HeLa cells assessed as viable cells at 2.5 uM after 48 hrs by annexin-V-FITC/propidium iodide staining based flow cytometry (reference value: 88.6%); assay type: functional; details: Homo sapiens, HeLa, 48 h; read-out: Activity
[33] = tested on: HepG2; assay: Antiproliferative activity against human HepG2 cells assessed as reduction in cell viability after 72 hrs by MTT assay; assay type: functional, cell-based; details: HepG2, 72 h
[34] = Half life in artificial gastric fluid; assay type: ADME
[35] = tested on: HeLa; assay: Induction of apoptosis in human HeLa cells assessed as late apoptotic cells at 2.5 uM after 48 hrs by annexin-V-FITC/propidium iodide staining based flow cytometry (reference value: 9.3%); assay type: functional
[36] = Half life in mouse microsomes; assay type: ADME, Microsome
[37] = tested on: A549; assay: Antiproliferative activity against human A549 cells assessed as reduction in cell viability after 48 hrs by MTT assay; assay type: functional, cell-based; details: A549, 48 h
[38] = Antiproliferative activity against human HCT116 cells assessed as reduction in cell viability after 48 hrs by MTT assay; assay type: functional, cell-based; details: HCT-116, 48 h
[39] = tested on: HeLa; assay: Induction of apoptosis in human HeLa cells assessed as necrotic cells at 5 uM after 48 hrs by annexin-V-FITC/propidium iodide staining based flow cytometry (reference value: 0.693%); assay type: functional

Histone deacetylase 1, sequence (Q13547 whole entry): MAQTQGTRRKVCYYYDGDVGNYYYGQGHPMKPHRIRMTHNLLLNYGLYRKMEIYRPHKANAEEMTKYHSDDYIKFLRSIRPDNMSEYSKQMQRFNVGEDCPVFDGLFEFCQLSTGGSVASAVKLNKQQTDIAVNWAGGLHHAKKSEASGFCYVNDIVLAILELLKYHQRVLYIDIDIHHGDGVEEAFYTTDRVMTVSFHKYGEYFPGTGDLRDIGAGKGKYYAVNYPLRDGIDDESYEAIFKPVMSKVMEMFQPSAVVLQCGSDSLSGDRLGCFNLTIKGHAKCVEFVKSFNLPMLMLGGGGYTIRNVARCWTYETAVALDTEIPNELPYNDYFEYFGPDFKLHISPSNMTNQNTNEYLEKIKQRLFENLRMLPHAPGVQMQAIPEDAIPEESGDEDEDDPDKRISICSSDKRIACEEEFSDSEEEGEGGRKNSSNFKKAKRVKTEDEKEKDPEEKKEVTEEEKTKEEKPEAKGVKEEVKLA
Histone deacetylase 2, sequence (Q92769 whole entry): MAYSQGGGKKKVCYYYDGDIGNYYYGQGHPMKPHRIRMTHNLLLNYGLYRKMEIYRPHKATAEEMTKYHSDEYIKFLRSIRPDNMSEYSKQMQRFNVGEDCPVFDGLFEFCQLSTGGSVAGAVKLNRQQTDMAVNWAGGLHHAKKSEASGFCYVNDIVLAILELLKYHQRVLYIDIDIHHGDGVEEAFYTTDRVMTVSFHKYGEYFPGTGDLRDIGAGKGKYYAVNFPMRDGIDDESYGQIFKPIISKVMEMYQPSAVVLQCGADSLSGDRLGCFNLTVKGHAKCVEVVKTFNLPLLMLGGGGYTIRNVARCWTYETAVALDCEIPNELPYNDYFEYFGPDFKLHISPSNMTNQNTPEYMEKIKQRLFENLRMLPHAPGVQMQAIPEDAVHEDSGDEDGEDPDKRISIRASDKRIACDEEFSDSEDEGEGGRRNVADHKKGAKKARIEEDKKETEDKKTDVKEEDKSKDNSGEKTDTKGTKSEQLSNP
Histone deacetylase 3, sequence (O15379 whole entry): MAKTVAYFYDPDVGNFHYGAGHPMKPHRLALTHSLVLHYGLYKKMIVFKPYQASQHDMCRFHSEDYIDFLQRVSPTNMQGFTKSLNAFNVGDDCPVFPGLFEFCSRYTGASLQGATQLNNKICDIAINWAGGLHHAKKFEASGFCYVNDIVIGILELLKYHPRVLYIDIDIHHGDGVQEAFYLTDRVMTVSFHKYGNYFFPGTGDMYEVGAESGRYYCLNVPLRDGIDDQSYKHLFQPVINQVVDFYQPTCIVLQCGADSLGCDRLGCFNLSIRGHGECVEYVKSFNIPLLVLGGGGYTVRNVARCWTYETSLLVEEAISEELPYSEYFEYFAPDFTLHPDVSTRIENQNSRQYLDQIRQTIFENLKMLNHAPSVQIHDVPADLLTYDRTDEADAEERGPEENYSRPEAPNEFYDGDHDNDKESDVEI

Row | IC50 [1] [µM] | IC50 [2] [µM] | half-life [4] [h] | IC50 [6] [µM] | IC50 [7] [µM] | IC50 [8] [µM] | IC50 [15] [µM] | IC50 [17] [µM] | SMILES | Activity [3] [%] | Activity [5] [%] | Activity [8] | Activity [9] [%] | Activity [10] [%] | Activity [11] [%] | Activity [12] [%] | Activity [13] [%] | Activity [14] [%] | IC50 [16] [µM] | Activity [18] [%] | IC50 [19] [µM] | other results
1 | 0.134 | 0.102 | > 24 | 7.23 | 2.41 | 4.64 | 30.7 | 4.03 | O=C(NO)c1ccc(CNc2nccc(-c3cccnc3)n2)cc1 | 0.31 | 0.66 | Dose-dependent effect | 0.94 | 0.03 | 0.13 | 0.56 | 0.31 | 11.7 | 13.7 | 0.72 | 1.66 | IC50 [20]: 3.17 µM; Activity [21]: 11.1%; Activity [22]: 6.33%; viability at 1.25 µM [23]: 79.3%; half-life [24]: 12 h; Activity [25]: 0.03%; Activity [26]: 14.9%; Activity [27]: 0.04%; viability at 5 µM [28]: 76.7%; IC50 [29]: 22.9 µM; IC50 [30]: 0.065 µM; Activity [31]: 4.89%; viability at 2.5 µM [32]: 81.1%; IC50 [33]: 2.96 µM; half-life [34]: > 24 h; Activity [35]: 11.9%; half-life [36]: 2.87 h; IC50 [37]: 11.9 µM; IC50 [38]: < 0.88 µM; Activity [39]: 0.536%
2 | 0.187 | 0.113 | > 24 | 3.79 | 2.66 | 7.99 | 53.4 | 5.95 | O=C(/C=C/c1ccc(CNc2nccc(-c3cccnc3)n2)cc1)NO | 0.3 | 0.64 | Dose-dependent effect | 0.924 | 0.03 | 0.13 | 0.58 | 0.29 | 12.4 | 8.28 | 0.603 | 1.05 | IC50 [20]: 3.24 µM; Activity [21]: 10.2%; Activity [22]: 6.59%; viability at 1.25 µM [23]: 82.6%; half-life [24]: 10 h; Activity [25]: 0.05%; Activity [26]: 12.2%; Activity [27]: 0.09%; viability at 5 µM [28]: 76.5%; IC50 [29]: 20.5 µM; IC50 [30]: 0.082 µM; Activity [31]: 4.27%; viability at 2.5 µM [32]: 79.6%; IC50 [33]: 6.52 µM; half-life [34]: > 24 h; Activity [35]: 13.2%; half-life [36]: 2.5 h; IC50 [37]: 8.32 µM; IC50 [38]: < 0.81 µM; Activity [39]: 0.858%

From ChEMBL document CHEMBL3751819, “Navigating into the chemical space between MGCD0103 and SAHA: novel histone deacetylase inhibitors as a promising lead” (Medchemcomm, 2015)
